Assay [1] has as its target T1, FGFR2 (Homo sapiens, UniProt P21802).
T1 construct: made in house; host or cells: E. coli host derived from BL21, infected with T7 phage
Kind of assay: Kinase binding assay (Kd), FGFR2. Particulars: 11-point 3-fold dilution, qPCR readout. The method in brief: (§1)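 Competition binding: kinase-tagged T7 phage, ligand-coated streptavidin beads and an 11-point 3-fold compound series (0.9% DMSO final) were incubated 1 h at room temperature. Bead-bound kinase was eluted and quantified by qPCR. Kd was fitted to the Hill equation with slope fixed at −1.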

Assay [2] concerns the target T2, FGFR3-BAIAP2L1 Ba/F3 cells (Homo sapiens, UniProt P22607).
T2 construct: Ba/F3 FGFR3; FGFR3--BAIAP2L1 fusion; Advanced Cellular Dynamics, (Seattle, WA); fused on or other part: Q9UHR4 (BAR/IMD domain-containing adapter protein 2-like 1)
Kind of assay: Ba/F3 cell viability assay, FGFR3. In kind it is cell-based. Particulars: FGFR3-BAIAP2L1 fusion Ba/F3, 48 hours, Cell Titer-Glo 2.0; read-out: Ba/F3 Cells FGFR3 (IC50 nM). From the text: Experimental Purpose: Recombinant kinase fusions are transduced into parental Ba/F3, which becomes dependent upon this constitutive kinase activity for IL3-independent survival. Inhibition of kinase activity leads to cell death, which is monitored using CellTiter-Glo® 2.0 (Promega) which measures intracellular ATP concentration that in turn serves as a marker for viability. FGFR1-BCR Ba/F3 and FGFR3-BAIAP2L1 Ba/F3 were obtained from Advanced Cellular Dynamics (Seattle, Wash.)
Cell Viability Assay Procedure: Cell Titer-Glo® 2.0 Luminescent cell viability assay reagent was purchased from Promega (Madison, Wis.). FGFR1-BCR Ba/F3 and FGFR3-BAIAP2L1 Ba/F3 cells were cultured in RPMI1640 media supplemented with 10% fetal bovine serum. Cultures were maintained at 37° C. in a humidified atmosphere of 5% CO2 and 95% air.
Cells were plated in 96-well clear bottom/white plates (Corning #3903) at 10,000 cells/well in 100 μl of media, incubated overnight. The next day, test compound DMSO stock solutions were made at 10 mM and 2 μM final concentration. Compounds were then added to cells in a 9-dose, 10-fold dilution series starting at 30 μM with an HP 300e Digital Dispenser (each dose was applied in triplicate). DMSO was backfilled to each well up to 301 nL total volume of test compound+DMSO, and a total of 301 nL DMSO was added to a control/no test compound well in triplicate. The cells in cell culture plates were incubated with the compounds at 37° C. and 5% CO2 for 48 hours. Then 50 μl of Cell Titer Glo 2.0 reagent was added to each well of the cell culture plates. The contents were covered from light and mixed on an orbital shaker at room temperature for 10 min. Luminescence was recorded by a Synergy H1 Microplate Reader (Biotek, Winooski, Vt.). Cells were assessed as a percentage of DMSO only treated control cells. Curves were plotted and IC50 values were calculated using the GraphPad Prism 8 program based on a sigmoidal dose-response equation (4 parameter).

Assay [3] has as its target T3, FGFR3 (Homo sapiens, UniProt P22607).
T3 construct: made in house; host or cells: E. coli host derived from BL21, infected with T7 phage
Kind of assay: Kinase binding assay (Kd), FGFR3. Particulars: 11-point 3-fold dilution, qPCR readout. The method in brief: as §1

Assay [4] addresses T4, FGFR4 (Homo sapiens, UniProt P22455).
T4 construct: made in house; host or cells: E. coli host derived from BL21, infected with T7 phage
Kind of assay: Kinase binding assay (Kd), FGFR4. The settings on record: 11-point 3-fold dilution, qPCR readout. Summed up: as §1

The test system of assay [5] is RT112/84 cells (Bladder Cancer, FGFR3-TACC3 fusion). Description: Cancer cell line cell viability assay, RT112/84. In kind it is cell-based. Particulars: Homo sapiens, 72 hours, Cell Titer-Glo 2.0, read-out: Cancer Cell Viability Assays RT112/84 (IC50 nM). Summed up:
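RT112/84 or SNU-16 cells (10,000/well) treated 72 h at 37° C. with a 9-dose, 10-fold series from 30 μM, in triplicate. Viability by CellTiter-Glo 2.0 luminescence relative to DMSO controls; IC50 from 4-parameter sigmoidal fit.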

Our source for the Kd, GI50 and IC50 values is US20230115945A1, “AMINOPYRIMIDINE COMPOUNDS” (TYRA BIOSCIENCES, INC., priority 2019, published 2023).

Each structure is given as a SMILES string.

T3 sequence (P22607 23-806): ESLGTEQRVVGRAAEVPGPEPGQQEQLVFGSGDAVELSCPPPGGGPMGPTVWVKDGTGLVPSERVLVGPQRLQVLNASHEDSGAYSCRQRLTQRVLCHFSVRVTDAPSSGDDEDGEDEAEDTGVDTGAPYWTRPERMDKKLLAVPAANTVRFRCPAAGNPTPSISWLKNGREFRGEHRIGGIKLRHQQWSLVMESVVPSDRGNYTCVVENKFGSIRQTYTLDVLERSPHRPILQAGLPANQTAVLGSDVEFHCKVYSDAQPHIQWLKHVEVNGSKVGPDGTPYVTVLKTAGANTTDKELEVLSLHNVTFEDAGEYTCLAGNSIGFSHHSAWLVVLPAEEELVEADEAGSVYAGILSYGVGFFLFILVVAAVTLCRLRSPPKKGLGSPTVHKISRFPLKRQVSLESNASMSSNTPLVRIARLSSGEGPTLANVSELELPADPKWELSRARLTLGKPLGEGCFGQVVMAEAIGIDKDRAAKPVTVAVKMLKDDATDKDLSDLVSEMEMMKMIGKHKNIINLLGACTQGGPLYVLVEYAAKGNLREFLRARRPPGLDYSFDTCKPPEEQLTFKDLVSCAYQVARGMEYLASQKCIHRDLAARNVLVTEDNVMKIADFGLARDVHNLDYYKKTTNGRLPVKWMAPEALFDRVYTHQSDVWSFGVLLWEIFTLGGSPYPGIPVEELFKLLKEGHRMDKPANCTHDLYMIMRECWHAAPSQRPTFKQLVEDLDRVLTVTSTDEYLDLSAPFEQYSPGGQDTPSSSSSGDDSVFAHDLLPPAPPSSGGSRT
T1 sequence (P21802 22-821): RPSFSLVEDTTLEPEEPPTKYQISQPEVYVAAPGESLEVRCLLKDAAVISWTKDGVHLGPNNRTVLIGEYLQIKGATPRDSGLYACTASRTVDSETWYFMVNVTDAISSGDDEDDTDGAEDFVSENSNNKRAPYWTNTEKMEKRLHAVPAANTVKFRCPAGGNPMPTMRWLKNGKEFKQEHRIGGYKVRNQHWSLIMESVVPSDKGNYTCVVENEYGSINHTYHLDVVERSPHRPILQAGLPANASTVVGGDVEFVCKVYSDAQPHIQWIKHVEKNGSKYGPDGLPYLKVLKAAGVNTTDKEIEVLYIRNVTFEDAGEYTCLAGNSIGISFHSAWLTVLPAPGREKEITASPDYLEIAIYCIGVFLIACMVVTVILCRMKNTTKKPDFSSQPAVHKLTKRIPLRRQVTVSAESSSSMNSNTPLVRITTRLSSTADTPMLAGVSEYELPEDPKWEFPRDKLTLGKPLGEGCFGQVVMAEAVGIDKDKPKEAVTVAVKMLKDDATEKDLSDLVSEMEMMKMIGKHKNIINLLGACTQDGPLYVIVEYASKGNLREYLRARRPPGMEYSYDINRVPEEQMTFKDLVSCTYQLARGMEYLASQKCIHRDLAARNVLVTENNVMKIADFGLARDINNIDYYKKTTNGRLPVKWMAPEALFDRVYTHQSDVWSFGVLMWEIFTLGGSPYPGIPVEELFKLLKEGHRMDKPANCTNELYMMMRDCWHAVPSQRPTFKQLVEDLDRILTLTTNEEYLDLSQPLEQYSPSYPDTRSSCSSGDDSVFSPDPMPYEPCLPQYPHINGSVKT
T4 sequence (P22455 22-802): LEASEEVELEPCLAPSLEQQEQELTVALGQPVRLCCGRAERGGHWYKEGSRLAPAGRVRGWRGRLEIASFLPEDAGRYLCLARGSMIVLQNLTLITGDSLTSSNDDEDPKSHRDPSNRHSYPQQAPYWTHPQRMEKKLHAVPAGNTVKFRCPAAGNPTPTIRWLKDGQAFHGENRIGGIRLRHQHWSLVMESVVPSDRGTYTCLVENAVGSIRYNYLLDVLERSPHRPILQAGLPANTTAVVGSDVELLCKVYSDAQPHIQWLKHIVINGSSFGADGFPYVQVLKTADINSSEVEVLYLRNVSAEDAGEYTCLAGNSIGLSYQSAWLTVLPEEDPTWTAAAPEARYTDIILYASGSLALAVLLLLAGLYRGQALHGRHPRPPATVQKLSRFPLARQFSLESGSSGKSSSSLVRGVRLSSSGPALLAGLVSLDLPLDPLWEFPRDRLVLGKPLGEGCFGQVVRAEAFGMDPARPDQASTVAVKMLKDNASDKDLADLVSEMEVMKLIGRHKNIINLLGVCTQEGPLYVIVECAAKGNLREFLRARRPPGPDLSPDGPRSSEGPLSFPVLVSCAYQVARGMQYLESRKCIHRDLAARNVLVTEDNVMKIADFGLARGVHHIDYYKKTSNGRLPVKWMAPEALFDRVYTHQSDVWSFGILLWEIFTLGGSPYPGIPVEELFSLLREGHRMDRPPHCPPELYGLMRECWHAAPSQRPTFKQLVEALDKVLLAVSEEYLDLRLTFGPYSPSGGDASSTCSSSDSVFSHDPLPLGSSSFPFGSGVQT
T2 sequence (P22607 whole entry, change not shown, the tested form may be a part): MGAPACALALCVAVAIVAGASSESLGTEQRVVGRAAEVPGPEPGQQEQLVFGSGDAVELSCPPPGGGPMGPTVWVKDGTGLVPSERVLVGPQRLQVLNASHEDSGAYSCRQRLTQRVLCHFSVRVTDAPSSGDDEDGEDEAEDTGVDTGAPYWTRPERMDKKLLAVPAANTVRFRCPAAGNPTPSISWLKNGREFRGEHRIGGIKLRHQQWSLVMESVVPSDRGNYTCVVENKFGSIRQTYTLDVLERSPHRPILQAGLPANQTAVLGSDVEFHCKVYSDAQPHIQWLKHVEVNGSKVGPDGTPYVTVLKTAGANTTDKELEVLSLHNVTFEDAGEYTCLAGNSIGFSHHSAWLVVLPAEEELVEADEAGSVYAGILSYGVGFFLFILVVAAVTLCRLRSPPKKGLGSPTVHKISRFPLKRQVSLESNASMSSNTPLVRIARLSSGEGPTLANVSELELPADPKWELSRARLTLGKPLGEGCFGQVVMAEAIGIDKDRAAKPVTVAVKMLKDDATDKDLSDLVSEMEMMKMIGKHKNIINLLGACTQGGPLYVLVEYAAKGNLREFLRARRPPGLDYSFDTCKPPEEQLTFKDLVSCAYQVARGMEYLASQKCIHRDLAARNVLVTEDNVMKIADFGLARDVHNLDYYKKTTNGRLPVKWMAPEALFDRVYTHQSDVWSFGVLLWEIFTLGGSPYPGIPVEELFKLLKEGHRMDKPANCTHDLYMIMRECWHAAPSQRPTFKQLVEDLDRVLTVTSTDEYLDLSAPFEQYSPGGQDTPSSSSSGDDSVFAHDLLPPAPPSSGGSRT

For `C=CC(=O)Nc1ccc2c(c1)c(C)cn2-c1nc(Nc2ccc(N=S(C)(C)=O)c(F)c2)ncc1C#N` [Example 62, N-[1-[5-Cyano-2-[4-[[dimethyl(oxo)-λ^6-sulfanylidene]amino]-3-fluoro-anilino]pyrimidin-4-yl]-3-methyl-indol-5-yl]prop-2-enamide], the Kd amounted to 16 nM in assay [1], 20 nM in assay [3] and 170 nM in assay [4]. Further, the GI50 in assay [2] was 46 nM. For the same compound, the IC50 in assay [5] amounted to 64 nM.
In the same order, the values of `C=CC(=O)Nc1ccc2c(-c3nc(Nc4ccc(N=S(C)(C)=O)cc4)ncc3Cl)cn(C)c2c1` [Example 92, N-[3-[5-chloro-2-[4-[[dimethyl(oxo)-λ^6-sulfanylidene]amino]anilino]pyrimidin-4-yl]-1-methyl-indol-6-yl]prop-2-enamide] are 13 nM, 12 nM, 230 nM, 15 nM and 47 nM.
The like results for `C=CC(=O)Nc1ccc2c(ccn2-c2nc(Nc3ccc(S(C)(=N)=O)cc3)ncc2Cl)c1` (stereo not shown) [Example 70, N-[1-[5-Chloro-2-[4-(methylsulfonimidoyl)anilino]-pyrimidin-4-yl]indol-5-yl]prop-2-enamide] were, in that order, 25 nM, 21 nM, 370 nM, 34 nM and 159 nM.
As for `C=CC(=O)Nc1ccc2c(c1)c(C)cn2-c1nc(Nc2ccc(N=S(C)(C)=O)c(F)c2)ncc1Cl` [Example 60, N-[1-[5-Chloro-2-[4-[[dimethyl(oxo)-λ^6-sulfanylidene]amino]-3-fluoro-anilino]pyrimidin-4-yl]-3-methyl-indol-5-yl]prop-2-enamide], the dissociation constant Kd amounted to 3.2 nM in assay [1], 3.5 nM in assay [3] and 42 nM in assay [4]. The GI50 in assay [2] is 10 nM. Also, the IC50 in assay [5] stood at 16 nM.
On to `C=CC(=O)Nc1ccc2c(c1)c(C)cn2-c1nc(Nc2ccc(N=S(C)(C)=O)cc2)ncc1Cl` [Example 61, N-[1-[5-Chloro-2-[4-[[dimethyl(oxo)-λ^6-sulfanylidene]amino]anilino]pyrimidin-4-yl]-3-methyl-indol-5-yl]prop-2-enamide], for which the Kd in assay [1] was found to be 6 nM; in assay [3] it was 6 nM; in assay [4], 100 nM. The GI50 in assay [2] turned out to be 15 nM. Besides, the IC50 in assay [5] was 23 nM.
As to `C=CC(=O)Nc1ccc2c(ccn2-c2nc(Nc3ccc(N=S(C)(C)=O)cc3)ncc2Cl)c1` [Example 66, N-[1-[5-chloro-2-[4-[[dimethyl(oxo)-λ^6-sulfanylidene]amino]anilino]-pyrimidin-4-yl]indol-5-yl]prop-2-enamide], the Kd amounted to 37 nM in assay [1], 21 nM in assay [3] and 680 nM in assay [4]. For the same compound, in assay [2], the GI50 was found to be 28 nM. Also, the IC50 in assay [5] amounted to 113 nM.
The like results for `C=CC(=O)Nc1ccc2c(c1)c(C)cn2-c1nc(Nc2ccc(N=S(C)(C)=O)c(F)c2)ncc1C` [Example 63, N-[1-[2-[4-[[dimethyl(oxo)-λ^6-sulfanylidene]amino]-3-fluoro-anilino]-5-methyl-pyrimidin-4-yl]-3-methyl-indol-5-yl]prop-2-enamide] were, in that order, 3 nM, 3 nM, 39 nM, 5 nM and 8 nM.
As for `C=CC(=O)Nc1ccc2c(c1)c(C)cn2-c1nc(Nc2ccc(N=S(C)(C)=O)c(OC)c2)ncc1Cl` [Example 64, N-[1-[5-Chloro-2-[4-[[dimethyl(oxo)-λ^6-sulfanylidene]amino]-3-methoxy-anilino]pyrimidin-4-yl]-3-methyl-indol-5-yl]prop-2-enamide], the Kd in assay [1] is 4 nM; in assay [3], 4 nM; in assay [4] it was 59 nM. Also, in assay [2], the GI50 was 12 nM. For the same compound, the IC50 in assay [5] was found to be 12 nM.
